Consider 5 compounds from patent publication EP0210284B1, “1,3-Dithiol-2-ylidene derivatives” (priority 1985, dated 1987).

Read-outs that look alike come from different tables or passages of the source.

The subject of series [1] is Acute Liver Injury Induced by D-Galactosamine. In words: Protective effect on acute liver injury induced by D-galactosamine. The class given is in vivo, rats (SD strain). Particulars: 50mg/kg orally twice daily for 6 days, D-galactosamine 200mg/kg x 3 i.p.; for Glucose / P-GPT: plasma 48 hours after first injection; for Glucose: D-Galactosamine alone 32±4, Normal 142±4; for P-GPT: D-Galactosamine alone 4825±590, Normal 29±2; for ALP: alkaline phosphatase in plasma, D-Galactosamine alone 176±6, Normal 500±63. As to the method:
A test compound was dissolved or suspended in olive oil and orally administered twice daily for 6 days at a dose of 50mg/kg to rats (SD strain, ? , 225 ±15g, 7 weeks-old, n=5). On the 6th day, D-galactosamine (200mg/kg x 3) was intraperitoneally administered three times at 3-hour intervals. 48 Hours after the first injection of D-galactosamine, the animals were sacrificed by exsanguination from the abdominal aorta. The protective effect was evaluated by examining the biochemical parameters (p-GPT, glucose, alkaline phosphatase) in plasma.

The subject of series [2] is Acute Liver Injury Induced by Carbon Tetrachloride. In words: Protective effect on acute liver injury induced by carbon tetrachloride. The class given is in vivo, mice (ddY mice). Particulars: for Liver Damage Index: 50mg/kg orally in olive oil 6 hours before carbon tetrachloride (0.05ml/kg orally), visual score 0: normal, 2: slightly, 4: distinctly, 6: remarkably injured, n=5, CCl4 alone 6.0; for inhibition in vivo at 50 mg/kg: Mus musculus, po, 50mg/kg orally 6 hours before carbon tetrachloride (0.05ml/kg orally), CCl4 alone 0, Normal 100. On the procedure:
A test compound was dissolved or suspended in olive oil and administered orally at a dose of 50mg/kg to mice (ddY mice, ? , 23 ± 2g, n=5). After 6 hours, carbon tetrachloride (0.05ml/kg) was administered orally. 24 Hours after the administration of carbon tetrachloride, BSP (sodium sulfobromophthalene; 75mg/kg) was administered intravenously. Thirty minutes later, the cardiac blood was collected, and GPT (glutamic-pyruvic transaminase) activity and the retention rate of BSP in the plasma were measured. Further, the liver injury immediately after the collection of the blood was visually observed and evaluated by the following score for liver damage index. 0: normal 2: Slightly injured 4: distinctly injured 6: remarkably injured

For another series, the system named is mice (ddY mice). In words: Acute toxicity test. The class given is in vivo. Particulars: oral in olive oil, mortality one week after the administration, n=5. As to the method:
A test compound was dissolved or suspended in olive oil and administered orally to mice (ddY mice, ? , 23±2g, n=5). The acute toxicity value (LD₅₀) was determined from the mortality one week after the administration.

Series [3] has as its system Fatty Liver Induced by Carbon Tetrachloride. In words: Therapeutic effect on fatty liver induced by carbon tetrachloride. Further details: Apoprotein: unit not given here. The class given is in vivo, rats (SD strain). On the procedure: Carbon tetrachloride (1ml/kg) was subcutaneously administered to rats (SD strain, ? , 38 week-old, n=5) for 4 days. Upon expiration of 3 days from the administration of carbon tetrachloride, Compound 6 was orally given successively for 7 days at the dose of 50mg/kg. On the 8th day, the animals were sacrificed by exsanguination. The therapeutic effect was evaluated by examining the content of triglyceride in the liver and the concentration of apoprotein B in the plasma. […]

The subject of series [4] is Protein Synthesis in Liver. In words: Effect on protein synthesis in liver. The class given is in vivo, rats (Wister strain). Particulars: 100mg/kg orally for 3 days. On the procedure: Compound 6 was dissolved in olive oil and orally administered successively for 3 days at a dose of 100mg/kg to rats (Wister strain, ? , 180±10g, 6 week-old, n=5). 24 Hours after the administration of the test compound was completed, the animals were sacrificed. The effect on the protein synthesis in the liver was evaluated by determining the liver weight and protein content.

Setting [5] is: 24.5 h, retention rate of BSP in plasma 30 minutes after BSP 75mg/kg i.v., read-out: % Prophylaxis BSP.
The mark [6] stands for this setting: plasma GPT about 24.5 hours after CCl4, read-out: % Prophylaxis p-GPT.

Regarding `CC(=O)C(C(=O)c1nc2ccccc2[nH]1)=C1SC=CS1` [Compound 47, 2-(1,3-dithiol-2-ylidene)-1-(2-benzimidazolyl)-1,3-butanedione], in series [1], the Glucose came out at 55 ± 2 mg/dL, the P-GPT amounted to 2938±694 U/l and the ALP turned out to be 287±25 U/l. The “Liver Damage Index” value in series [2] was 2.4. Further, the inhibition in vivo at 50 mg/kg in series [2] (setting [5]) stood at 103%. Further, in series [2] (setting [6]), the inhibition in vivo at 50 mg/kg stood at 91%.

Regarding `CC(C)CC(=O)C(C(=O)c1ccccc1)=C1SC=CS1` [Compound 8, 2-(1,3-dithiol-2-ylidene)-5-methyl-1-phenyl-1,3-hexanedione], the “Liver Damage Index” value in series [2] was 1.2. In addition, the values for the inhibition in vivo at 50 mg/kg in series [2] (setting [5]) and in series [2] (setting [6]) were 110% and 100%, respectively. Further, the “acute toxicity value (LD50)” value in the series with mice (ddY mice) was “at least 2 g”.

`CC(=O)C(C(=O)c1cccc2ccccc12)=C1SC=CS1` [Compound 27, 2-(1,3-dithiol-2-ylidene)-1-(1-naphthyl)-1,3-butanedione]: the “Liver Damage Index” value in series [2] turned out to be 0. Further, the inhibition in vivo at 50 mg/kg in series [2] (setting [5]) and in series [2] (setting [6]) was 100% throughout. The “acute toxicity value (LD50)” value in the series with mice (ddY mice) is recorded as “at least 2 g”.

For the compound `CC(=O)C(C(=O)c1ccccc1)=C1SC=CS1` [Compound 6, 2-(1,3-dithiol-2-ylidene)-1-phenyl-1,3-butanedione], in series [1], the Glucose amounted to 81 ± 9 mg/dL, the P-GPT was 908±248 U/l and the ALP worked out at 398±45 U/l. Besides, the “effect for curing the fatty liver” value in series [3] (50mg/kg orally for 7 days, rats with CCl4-induced fatty liver, statement in words) is “significant effect for curing the fatty liver”. Moreover, the Apoprotein in series [3] (apoprotein B in plasma, carbon tetrachloride 1ml/kg s.c. for 4 days, compound 50mg/kg orally for 7 days, CCl4 alone 66± 2, Normal 125± 8) is given as 112± 23. Also, in series [3] (carbon tetrachloride 1ml/kg s.c. for 4 days, compound 50mg/kg orally for 7 days, liver content on the 8th day, CCl4 alone 99± 6, Normal 33± 5), the Triglyceride turned out to be 33± 7 mg/g-liver. In addition, the “Liver Weight” value in series [4] (24 hours after last administration, Control 6.3±0.1) turned out to be 8.6±0.3 g/100g b.w. The “Liver Protein” value in series [4] (24 hours after last administration, Control 883±79) came out at 1247±62 mg/100g b.w. Besides, in series [4] (statement in words), the “effect for stimulating the protein metabolic function of the liver” value is reported as “substantial effect for stimulating the protein metabolic function of the liver”. Also, the “Liver Damage Index” value in series [2] stood at 0.4. For the same compound, the inhibition in vivo at 50 mg/kg in series [2] (setting [5]) came out at 103%. For the same compound, the inhibition in vivo at 50 mg/kg in series [2] (setting [6]) was found to be 100%. For the same compound, in the series on mice (ddY mice), the “acute toxicity value (LD50)” value is on record as “at least 2 g”.

For `CC(=O)C(C(=O)c1ccc(C)cc1)=C1SC=CS1` [Compound 12, 2-(1,3-dithiol-2-ylidene)-1-(4-methylphenyl)-1,3-butanedione], in series [2], the “Liver Damage Index” value came out at 0.6. Besides, the inhibition in vivo at 50 mg/kg was 114% in series [2] (setting [5]) and 100% in series [2] (setting [6]). Besides, the “acute toxicity value (LD50)” value in the series with mice (ddY mice) was “at least 2 g”.
